Here are results for two molecules from PMC10986598, “Investigating inhibitors of 1-deoxy-D-xylulose 5-phosphate synthase in a mouse model of UTI” (Microbiology Spectrum, 2024).

For orientation: Cmax means the peak of the concentration-time curve. A word on the Tmax: it is the time at which the peak concentration occurs.

Read-outs that look alike come from different tables or passages of the source.

The nature of series [1]: In vivo PK studies in CD-1 mice. The following applies: for AUC: pro-hpAP 30 mg/kg IP; for Cmax / AUC(0-t): ip, 30 mg/kg; for AUC(0-t): read-out: AUC0-t. The method, then: For pharmacokinetic analysis, both male (n = 2) and female (n = 2) CD1 mice were dosed with either BAP or pro-hpAP by intraperitoneal (IP) route or administration (100 mg/kg) and (30 mg/kg), respectively. Blood and tissue samples were collected at predetermined time points (0–6 h post-dose). Plasma was generated from blood by low-speed centrifugation (3,000 × g), and all samples were stored at −80°C until bioanalysis.
Non-compartmental-analysis module in WinNonlin was used to assess blood pharmacokinetic parameters including max concentrations (Cmax), time to Cmax (Tmax), area under the curve (AUC), area extrapolated to infinity (AUC0–∞), and terminal half-life (t1/2). In addition, the tissue penetration index was measured as the ratio of AUCtissue to AUCplasma.
To quantify BAP and pro-hpAP, methanol containing 0.5 µM losartan as an internal standard was added 5 µL/µL plasma or 5 µL/mg tissue in microcentrifuge tubes. Tissue was further homogenized using a Spex Geno/Grinder with stainless steel beads for 3 min at 1,500 RPM. Homogenates from untreated animals were spiked with the analytes from 100 to 0.01 nmol/g tissue by serial dilution to generate a standard curve. Plasma and tissue homogenates were then vortexed and centrifuged (16,000 × g for 5 min at 4°C) to precipitate proteins. Supernatants were transferred to a 96 well plate and 2 µL was injected on a Accela 1250 LC coupled to a Vantage triple quadrupole mass spectrometer (Thermo Fisher Scientific Inc., Waltham MA). Samples were separated on an Agilent EclipsePlus C18 RRHD (1.8 µm) 2.1 × 100 mm column with mobile phases consisting of water +0.1% formic acid (A), and acetonitrile + 0.1% formic acid (B). […] Samples were introduced to the source through heated ion spray with the capillary temperature setting at 350°C, spray voltage of 4 kV and S-Lens RF of 51. Nitrogen was used as the sheath and auxiliary gas with the settings of 50 and 1 arbitrary units, respectively. For BAP, the instrument was operated in negative ion mode scanning for transitions of 179.1 > 63.1, 79.1 (BAP) and 420.9 > 179.1, 127.0 (losartan) which were acquired with collision energies setting of 17; 55 and 25; 41 CE, respectively. For pro-hpAP, the instrument was operated in positive ion mode scanning for transitions of 346.2 to 86.1 and 143.2 (pro-hpAP) and 422.9 to 207.1 and 180.1 (losartan) which were acquired with collision energies setting of 29; 17 and 37; 22 CE, respectively. Peaks were quantified with Xcalibur software.

In the next series the test system is UPEC strain CFT073. The series is described as follows: In vivo ascending UTI assay (prophylaxis). More on the design: species or system Escherichia coli in C3H/HeN mice. As to conditions: gentamicin 10 mg/kg IP 30 min prior to inoculation. The method, then: Female mice were injected subcutaneously in the flank with 2.5 mg of MPA (150 mg/mL, diluted in sterile saline) 7 days prior to inoculation ([60]). Mice were dosed vaginally with 30 µL of sterile saline lavage fluid immediately prior to inoculation. The fluid was collected, placed on a slide, heat fixed, Gram stained, and assessed to determine the estrous cycle stage of each mouse as previously described ([61]).
Six-week-old female C3H/HeN mice were inoculated with UPEC as previously described ([28]). Briefly, UPEC strain CFT073 (ATCC designation: BAA-2503) was streaked on LB agar from a frozen glycerol stock and grown overnight at 37°C. Following overnight incubation, three to five colonies were picked and subcultured into 10 mL of sterile LB, and the culture was incubated statically overnight at 37°C. The culture was diluted 1:1,000 (25 µL of culture into 25 mL of sterile LB) and incubated statically for 24 h at 37°C to promote the growth of bacteria with type-1 pili expression. The resulting 25 mL inoculum was centrifuged at 4,200 × g for 20 min at 4°C. The supernatant was removed, and the cell pellet was resuspended in 10 mL of sterile PBS. The OD600 was adjusted to 1.0 by the addition of PBS to give a cell density of approximately 4 × 10^7 to 1 × 10^8 CFUs per 50 µL, the volume of the inoculum. Cell counts were validated by plating a dilution of the inoculum solution and enumerating following overnight incubation.
Urinary catheters were assembled by threading 30G needles with 0.28 mm inner diameter polyethylene tubing to create a soft tip. Catheter tips were dipped in lubricant immediately before inoculation. During catheterization, urine was aspirated from the bladder prior to inoculation with 50 µL of UPEC inoculum, prepared as described above. Mice were housed with their drug-dosed cohort and dosed intraperitoneally according to each experiment’s dosing regimen as shown in the figures. Dosing regimen for BAP trial 1 (Fig. 7b)consisted of IP administration of BAP (300 mg/kg) 30 min before inoculation; dosing regimen for BAP trial 2 (Fig. 7c) consisted of IP administration of BAP (600 mg/kg) 30 min before inoculation followed with IP doses of BAP (300 mg/kg) at 1 and 3 hpi; dosing regimen for BAP trial 3 and the pro-hpAP trial (Fig. 7d) consisted of IP administration of BAP (600 mg/kg) or pro-hpAP (60 mg/kg) 30 min before inoculation followed with IP doses of BAP (300 mg/kg) or pro-hpAP (30 mg/kg) at 1, 3, and 24 hpi; dosing regimen 4 (Fig. S3) consisted of IP administration of BAP (600 mg/kg) 30 min before inoculation followed with IP doses of BAP (300 mg/kg) at 1, 3, 6, 10, 22, 26, and 30 hpi. Gentamicin diluted in sterile PBS was used as a positive control and was administered to mice at 10 mg/kg IP 30 min prior to inoculation in all experiments.
After 48 h, mice were anesthetized by isoflurane inhalation and sacrificed by cervical dislocation. Bladders were harvested, added to 1 mL sterile PBS, and homogenized with a hand-held homogenizer in a biosafety cabinet. Tissue homogenates were serially-diluted (five 10-fold dilutions), and 100 µL of each dilution was plated onto LB plates and enumerated after a 24 h incubation at 37°C, yielding an effective detection range of 1 × 10^2–150 × 10^8 CFU/mL. In a few cases, bacterial counts fell below the lower limit of detection or above the upper limit of detection and are reported as 0 CFU/mL or conservatively 200 × 10^8 CFU/mL, respectively.

[2] abbreviates: both sexes, CD1, mouse, in vivo, Bladder, single 30 mg/kg IP dose of pro-hpAP, analyte = labelled substance.
Where [3] appears, read: both sexes, CD1, mouse, in vivo, Brain, single 30 mg/kg IP dose of pro-hpAP, analyte = labelled substance.
The mark [4] stands for this setting: both sexes, CD1, mouse, in vivo, Kidney, single 30 mg/kg IP dose of pro-hpAP, analyte = labelled substance.

For `C#CCCOP(=O)(O)C(C)=O` [hpAP, homopropargyl acetylphosphonate], the AUC was found to be 366 ± 31 nmol·h/g in series [1] (bladder, analyte = labelled substance (pro-hpAP or released hpAP)); 38.8 ± 2.7 µM·h in series [1] (both sexes, CD1, mouse, in vivo, plasma, analyte = labelled substance, read-out: AUC); 1.87 ± 0.21 nmol·h/g in series [1] (brain, analyte = labelled substance); 16.3 ± 1.4 nmol·h/g in series [1] (kidney, analyte = labelled substance). The Cmax came to 586 ± 78 µM in series [1] (setting [2]); 2.18 ± 0.16 µM in series [1] (setting [3]); 50.2 ± 7.7 µM in series [1] (setting [4]); 110 ± 11 µM in series [1] (both sexes, CD1, mouse, in vivo, Plasma, single 30 mg/kg IP dose of pro-hpAP, analyte = labelled substance (pro-hpAP or released hpAP)). For the same molecule, the AUC(0-t) in series [1] (setting [2]) came out at 366 ± 31 µM·h; in series [1] (setting [3]), 1.87 ± 0.21 µM·h; in series [1] (setting [4]), 16.3 ± 1.4 µM·h; in series [1] (both sexes, CD1, mouse, in vivo, Plasma, single 30 mg/kg IP dose of pro-hpAP, analyte = labelled substance) it was 38.8 ± 2.7 µM·h. Moreover, the Tmax in series [1] (both sexes, CD1, mouse, in vivo, Kidney, single 30 mg/kg IP dose of pro-hpAP, analyte = labelled substance, read-out: Tmax) amounted to 15 min.

Turning to `CNC(C)C1CCC(N)C(OC2C(N)CC(N)C(OC3OCC(C)(O)C(NC)C3O)C2O)O1` (centres unmarked) [gentamicin, reference compound], the “mice with bacterial burden below the limit of detection (LOD)” value in the series with UPEC strain CFT073 was 5 of 8.
